Laboratory results published in patent US11970448B2, “Monomers capable of dimerizing in an aqueous solution, and methods of using same” (CORNELL UNIVERSITY, priority 2011, dated 2024).
pIC50: −log10 of the molar value. Like-named read-outs stand apart in the source and are kept apart here.

Target: T1, recominbant human tryptase, beta, from lung (Homo sapiens, UniProt P20231)
T1 construct: purchased Promega or Enzo Life Sciences G5631 or BML-SE418
Assay: Inhibition of tryptase activity by monomers and multimers (Boc-Gln-Ala-Arg-AMC fluorescence)
Assay type: biochemical
Settings: monomers against tryptase
How it was run: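 Recombinant human lung β-tryptase (1 nM final; stock with heparin sulfate and 1 M NaCl) preincubated with test substance, then 200 μM Boc-Gln-Ala-Arg-AMC added in 50 mM HEPES, 150 mM NaCl, 100 μM EDTA, 0.02% Tween-20, pH 7.4. AMC fluorescence (ex 367/em 468 nm) read every 30 s for 15–30 min; IC50 from Vmax concentration-response curves.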

[1] = Table 5, read-out: Monomer IC50 range
[2] = read-out: IC50 range group of additional monomers (boronic acid, benzooxaborole, ligands)
[3] = entry marked (1:10), read-out: IC50 range group of additional monomers marked (1:10)

T1 sequence (P20231 31-275): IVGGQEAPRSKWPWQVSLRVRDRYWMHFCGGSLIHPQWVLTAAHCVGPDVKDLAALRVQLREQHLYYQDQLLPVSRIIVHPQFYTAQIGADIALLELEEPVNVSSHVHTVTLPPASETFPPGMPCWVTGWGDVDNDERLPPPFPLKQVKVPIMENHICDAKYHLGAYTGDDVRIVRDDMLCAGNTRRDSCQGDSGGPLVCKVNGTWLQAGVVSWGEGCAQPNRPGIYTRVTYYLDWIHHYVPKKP

Compound | pIC50 [1] | pIC50 [2] | pIC50 [3]
CC(O)(COc1cccc(C(=O)N2CCC(c3cccc(CN)c3)CC2)c1)C(=O)O (stereo not drawn) [T72, 3-(3-(4-(3-(aminomethyl)phenyl)piperidine-1-carbonyl)phenoxy)-2-hydroxy-2-methylpropanoic acid] | 6.00 to 10.00 | 6.00 to 10.00 | –
NCc1cccc(C2CCN(C(=O)c3cccc(OCC(O)(C(=O)O)c4ccccc4)c3)CC2)c1 (stereo not drawn) [T73, 3-(3-(4-(3-(aminomethyl)phenyl)piperidine-1-carbonyl)phenoxy)-2-hydroxy-2-phenylpropanoic acid] | 6.00 to 10.00 | 6.00 to 10.00 | –
NCc1cccc(C2CCN(C(=O)c3ccc(CO)c(O)c3)CC2)c1 [T74, (4-(3-(aminomethyl)phenyl)piperidin-1-yl)(3-hydroxy-4-(hydroxymethyl)phenyl)methanone] | 6.00 to 10.00 | – | 6.00 to 10.00
NCc1ccc2c(c1)C1(CCN(C(=O)c3ccc(CO)c(O)c3)CC1)CO2 [T74SPIRO] | – | 6.00 to 10.00 | –
NCc1cccc(C2CCN(C(=O)c3ccc(C(N)=O)c(O)c3)CC2)c1 [T75, 4-(4-(3-(aminomethyl)phenyl)piperidine-1-carbonyl)-2-hydroxybenzamide] | 5.00 to 6.00 | 5.00 to 6.00 | –
CONC(=O)c1ccc(C(=O)N2CCC(c3cccc(CN)c3)CC2)cc1O [T75A, 4-(4-(3-(aminomethyl)phenyl)piperidine-1-carbonyl)-2-hydroxy-N-methoxybenzamide] | 6.00 to 10.00 | 6.00 to 10.00 | –
CC(C)(C)ONC(=O)c1ccc(C(=O)N2CCC3(CC2)COc2ccc(CN)cc23)cc1O [T75AOTBSPIRO] | – | 6.00 to 10.00 | –
CC(C)(C)ONC(=O)c1ccc(C(=O)N2CCC(c3cccc(CN)c3)CC2)cc1O [T75AOTB] | – | 5.00 to 6.00 | –
NCc1ccc2c(c1)C1(CCN(C(=O)c3ccc(C(=O)NOc4ccccc4)c(O)c3)CC1)CO2 [T75APSPIRO] | – | 6.00 to 10.00 | –
NCc1cccc(C2CCN(C(=O)c3ccc(C(=O)NOc4ccccc4)c(O)c3)CC2)c1 [T75AP] | – | – | 6.00 to 10.00
CONC(=O)c1ccc(C(=O)N2CCC3(CC2)COc2ccc(CN)cc23)cc1O [T75ASPIRO] | – | – | 6.00 to 10.00
NCc1cccc(C2CCN(C(=O)/C=C/c3ccc(C(N)=O)c(O)c3)CC2)c1 [T76, (E)-4-(3-(4-(3-(aminomethyl)phenyl)piperidin-1-yl)-3-oxoprop-1-enyl)-2-hydroxybenzamide] | 6.00 to 10.00 | 6.00 to 10.00 | –
CONC(=O)c1ccc(/C=C/C(=O)N2CCC(c3cccc(CN)c3)CC2)cc1O [T76A, (E)-4-(3-(4-(3-(aminomethyl)phenyl)piperidin-1-yl)-3-oxoprop-1-enyl)-2-hydroxy-N-methoxybenzamide] | 6.00 to 10.00 | 6.00 to 10.00 | –
NCc1cccc(C2CCN(C(=O)c3cc(O)c(O)cc3O)CC2)c1 [T77, (4-(3-(aminomethyl)phenyl)piperidin-1-yl)(2,4,5-trihydroxyphenyl)methanone] | 4.19 to 5.00 | 4.19 to 5.00 | –
NCc1cccc(C2CCN(C(=O)c3cc(O)c(O)c(Cl)c3)CC2)c1 [T78, (4-(3-(aminomethyl)phenyl)piperidin-1-yl)(3-chloro-4,5-dihydroxyphenyl)methanone] | 6.00 to 10.00 | 6.00 to 10.00 | –
NCc1ccc2c(c1)C1(CCN(C(=O)c3cc(O)c(O)c(Cl)c3)CC1)CO2 [T78SPIRO, (5-(aminomethyl)-2H-spiro[benzofuran-3,4′-piperidine]-1′-yl)(3-chloro-4,5-dihydroxyphenyl)methanone] | 6.00 to 10.00 | 6.00 to 10.00 | –
CC(O)(Cn1ccc2cc(C(=O)N3CCC(c4cccc(CN)c4)CC3)ccc21)C(=O)O (stereo not drawn) [T81, 3-(5-(4-(3-(aminomethyl)phenyl)piperidine-1-carbonyl)-1H-indol-1-yl)-2-hydroxy-2-methylpropanoic acid] | 6.00 to 10.00 | – | 6.00 to 10.00
CC(O)(Cn1ccc2ccc(C(=O)N3CCC(c4cccc(CN)c4)CC3)cc21)C(=O)O (stereo not drawn) [T82, 3-(6-(4-(3-(aminomethyl)phenyl)piperidine-1-carbonyl)-1H-indol-1-yl)-2-hydroxy-2-methylpropanoic acid] | 6.00 to 10.00 | – | 6.00 to 10.00
NCc1cccc(C2CCN(C(=O)c3ccc4c(ccn4CC(O)(C(=O)O)c4ccccc4)c3)CC2)c1 (stereo not drawn) [T83, 3-(5-(4-(3-(aminomethyl)phenyl)piperidine-1-carbonyl)-1H-indol-1-yl)-2-hydroxy-2-phenylpropanoic acid] | 6.00 to 10.00 | – | 6.00 to 10.00

Compound | pIC50 [1] | pIC50 [2] | pIC50 [3]
NCc1cccc(C2CCN(C(=O)c3ccc4ccn(CC(O)(C(=O)O)c5ccccc5)c4c3)CC2)c1 (stereo not drawn) [T84, 3-(6-(4-(3-(aminomethyl)phenyl)piperidine-1-carbonyl)-1H-indol-1-yl)-2-hydroxy-2-phenylpropanoic acid] | 6.00 to 10.00 | – | 6.00 to 10.00
CONC(=O)c1ccc(CC(=O)N2CCC(c3cccc(CN)c3)CC2)cc1O [T85 Å] | – | – | 6.00 to 10.00
NCc1cccc(C2CCN(C(=O)/C=C/c3ccc(O)c(C(N)=O)c3)CC2)c1 [T86, (E)-5-(3-(4-(3-(aminomethyl)phenyl)piperidin-1-yl)-3-oxoprop-1-enyl)-2-hydroxybenzamide] | 5.00 to 6.00 | 5.00 to 6.00 | –
CONC(=O)c1cc(C(=O)N2CCC(c3cccc(CN)c3)CC2)ccc1O [T92, 5-(4-(3-(aminomethyl)phenyl)piperidine-1-carbonyl)-2-hydroxy-N-methoxybenzamide] | 5.00 to 6.00 | 5.00 to 6.00 | –
NCc1cccc(C2CCN(C(=O)c3ccc(O)c(C(=O)NOc4ccccc4)c3)CC2)c1 [T92OPH] | – | 5.00 to 6.00 | –
NCc1ccc2c(c1)C1(CCN(C(=O)c3ccc(O)c(C(=O)NOc4ccccc4)c3)CC1)CO2 [T92PHSPIRO] | – | 5.00 to 6.00 | –
CONC(=O)c1cc(C(=O)N2CCC3(CC2)COc2ccc(CN)cc23)ccc1O [T92SPIRO] | – | 6.00 to 10.00 | –
NCc1cccc(C2CCN(C(=O)c3cc(=O)oc4c(O)c(O)ccc34)CC2)c1 [T96] | – | 5.00 to 6.00 | –
NCc1cccc(C2CCN(C(=O)Cc3cc(=O)oc4cc(O)c(O)cc34)CC2)c1 [T97, 4-(2-(4-(3-(aminomethyl)phenyl)piperidin-1-yl)-2-oxoethyl)-6,7-dihydroxy-2H-chromen-2-one] | 5.00 to 6.00 | 5.00 to 6.00 | –
NCc1cccc(C2CCN(C(=O)Cc3cc(=O)oc4c(O)c(O)ccc34)CC2)c1 [T98] | – | 4.19 to 5.00 | –
Cc1c(CC(=O)N2CCC(c3cccc(CN)c3)CC2)c(=O)oc2cc(O)c(O)cc12 [T99] | – | 5.00 to 6.00 | –
NCc1cccc(C2CCN(C(=O)c3cc4cc(O)c(O)cc4oc3=O)CC2)c1 [T100] | 4.19 to 5.00 | 4.19 to 5.00 | –
Cc1c(CC(=O)N2CCC(c3cccc(CN)c3)CC2)c(=O)oc2c(O)c(O)ccc12 [T101] | 6.00 to 10.00 | 6.00 to 10.00 | –
NCc1cccc(C2CCN(C(=O)c3cc4ccc(O)c(O)c4oc3=O)CC2)c1 [T102] | 6.00 to 10.00 | – | 6.00 to 10.00
NCc1cccc(C2CCN(C(=O)c3cccc(OCC(O)(C(=O)O)C4CCCC4)c3)CC2)c1 (stereo not drawn) [T103, 3-(3-(4-(3-(aminomethyl)phenyl)piperidine-1-carbonyl)phenoxy)-2-cyclopentyl-2-hydroxypropanoic acid] | 6.00 to 10.00 | – | 6.00 to 10.00
COc1cc(C(=O)N2CCC3(CC2)COc2ccc(CN)cc23)cc(O)c1O [T104SPIRO] | – | 6.00 to 10.00 | –
COc1cc(C(=O)N2CCC(c3cccc(CN)c3)CC2)cc(O)c1O [T104] | – | 6.00 to 10.00 | –
Cc1cc(C(=O)N2CCC(c3cccc(CN)c3)CC2)cc(-c2cccc(B(O)O)c2)c1C [T107] | – | 5.00 to 6.00 | –
NCc1ccc2c(c1)C1(CCN(C(=O)c3ccc(Cl)c(-c4cccc(B(O)O)c4)c3)CC1)CO2 [T109SPIRO] | – | 6.00 to 10.00 | –

Compound | pIC50 [1] | pIC50 [2] | pIC50 [3]
NCc1ccc2c(c1)C1(CCN(C(=O)c3cccc(-c4cccc5c4COB5O)c3)CC1)CO2 [T112SPIRO] | – | 5.00 to 6.00 | –
Cc1cc(C(=O)N2CCC3(CC2)COc2ccc(CN)cc23)cc(CO)c1O [T113SPIRO] | – | 6.00 to 10.00 | –
CONC(=O)c1cc(C(=O)N2CCC3(CC2)COc2ccc(CN)cc23)cc(C)c1O [T114Spiro] | – | 6.00 to 10.00 | –
CSc1sc(C(=O)N2CCC3(CC2)COc2ccc(CN)cc23)cc1-c1cccc(B(O)O)c1 [T116SPIRO] | – | – | 6.00 to 10.00
CSc1sc(C(=O)N2CCC3(CC2)COc2ccc(CN)cc23)cc1-c1cccc2c1C(C)OB2O (stereo not drawn) [T117GEMMONO] | – | 6.00 to 10.00 | –
CSc1sc(C(=O)N2CCC3(CC2)COc2ccc(CN)cc23)cc1-c1cccc2c1COB2O [T117SPIRO] | – | 6.00 to 10.00 | –
CC(C)(O)c1ccc(C(=O)N2CCC(c3cccc(CN)c3)CC2)cc1O [T126] | – | 5.00 to 6.00 | –
COc1ccc(C(=O)N2CCC(c3cccc(CN)c3)CC2)c(O)c1O [T127] | – | 5.00 to 6.00 | –
NCc1ccc2c(c1)C1(CCN(C(=O)c3cccc(-c4ccc(F)c(B(O)O)c4)c3)CC1)CO2 [T131SPIRO] | – | 6.00 to 10.00 | –
NCc1ccc2c(c1)C1(CCN(C(=O)c3cccc(-c4cc(F)cc(B(O)O)c4)c3)CC1)CO2 [T132SPIRO] | – | 5.00 to 6.00 | –
NCc1ccc2c(c1)C1(CCN(C(=O)c3cccc(-c4cccc(B(O)O)c4F)c3)CC1)CO2 [T133SPIRO] | – | 6.00 to 10.00 | –
CONC(=O)c1cc(C)cc(C(=O)N2CCC(c3cccc(CN)c3)CC2)c1O [T136A] | – | 6.00 to 10.00 | –
CN(Cc1ccccc1B(O)O)c1cccc2c(C(=O)N3CCC(c4cccc(CN)c4)CC3)cccc12 [T143] | – | 5.00 to 6.00 | –
Cc1c(CC(=O)N2CCC(c3cccc(CN)c3)CC2)c(=O)oc2cc(N(C)Cc3ccccc3B(O)O)ccc12 [T144] | – | 5.00 to 6.00 | –
CN(Cc1ccccc1B(O)O)c1cccc(C(=O)N2CCC(c3cccc(CN)c3)CC2)c1 [T146] | – | 4.19 to 5.00 | –
CN(Cc1ccccc1B(O)O)c1ccc(C(=O)N2CCC(c3cccc(CN)c3)CC2)cc1 [T147] | – | 5.00 to 6.00 | –
CN(Cc1ccccc1B(O)O)c1ccc2c(C(=O)N3CCC(c4cccc(CN)c4)CC3)cccc2c1 [T154] | – | 5.00 to 6.00 | –
CN(C)c1ccc(B(O)O)cc1-c1cccc(C(=O)N2CCC3(CC2)COc2ccc(CN)cc23)c1 [T155SPIRO] | – | 5.00 to 6.00 | –
NCc1cccc(C2CCN(C(=O)c3cnc4c(B(O)O)cccc4c3)CC2)c1 [T156] | – | 6.00 to 10.00 | –
